Laboratory results taken from patent US11332459B2 (TEIJIN PHARMA LIMITED, priority 2017, dated 2022).

Target: T1, human TRPC6 (Homo sapiens, UniProt Q9Y210)
T1 construct: expressed in transfected cells
T1 sequence (Q9Y210 1-931): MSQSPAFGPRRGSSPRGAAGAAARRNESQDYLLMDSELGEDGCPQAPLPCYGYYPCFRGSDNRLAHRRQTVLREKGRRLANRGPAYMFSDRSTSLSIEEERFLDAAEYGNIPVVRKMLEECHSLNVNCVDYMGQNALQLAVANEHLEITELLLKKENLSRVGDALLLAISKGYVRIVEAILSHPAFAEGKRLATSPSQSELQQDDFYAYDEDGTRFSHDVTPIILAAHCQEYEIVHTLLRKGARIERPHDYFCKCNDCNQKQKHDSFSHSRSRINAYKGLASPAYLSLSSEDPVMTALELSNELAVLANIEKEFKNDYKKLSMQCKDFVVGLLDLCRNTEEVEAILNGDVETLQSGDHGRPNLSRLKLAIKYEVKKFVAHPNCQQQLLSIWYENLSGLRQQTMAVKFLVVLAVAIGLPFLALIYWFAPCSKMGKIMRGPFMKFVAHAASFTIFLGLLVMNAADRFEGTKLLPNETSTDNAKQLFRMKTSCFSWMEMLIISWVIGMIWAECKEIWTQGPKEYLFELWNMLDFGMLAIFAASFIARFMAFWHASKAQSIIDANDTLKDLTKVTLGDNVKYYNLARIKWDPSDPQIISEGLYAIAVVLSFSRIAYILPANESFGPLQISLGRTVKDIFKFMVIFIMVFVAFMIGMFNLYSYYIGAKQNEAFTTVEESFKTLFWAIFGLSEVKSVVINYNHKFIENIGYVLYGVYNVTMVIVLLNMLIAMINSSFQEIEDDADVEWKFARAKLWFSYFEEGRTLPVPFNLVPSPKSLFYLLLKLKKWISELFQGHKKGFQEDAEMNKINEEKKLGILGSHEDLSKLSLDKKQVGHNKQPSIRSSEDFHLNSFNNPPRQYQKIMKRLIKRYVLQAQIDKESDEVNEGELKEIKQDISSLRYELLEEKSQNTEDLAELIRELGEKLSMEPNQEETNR
Assay: TRPC6 calcium flux assay (FLIPR, OAG-stimulated calcium influx)
Assay type: cell-based
Conditions: HEK293 cells stably transfected with human TRPC6, read-out: hTRPC6 Potency
How it was run: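 IC50 derived by plotting background-corrected peak fluorescence (180 s window, normalized to OAG-triggered signal vs buffer) against dose. Stable human TRPC6 HEK293 line was dye-loaded, exposed to compound 25 min, then challenged with 50 uM final OAG in 2 mM Ca2+ HEPES buffer pH 7.2, 0.5% DMSO.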

IC50 [nM] | SMILES
94 | N[C@@H]1CN(c2nc3cc(Cl)ccc3n2CC(=O)N2CCOCC2)CC[C@H]1F [Example 497, -(2-((3R,4R)-3-amino-4-fluoropiperidin-1-yl)-5-chloro-1H-benzo[d]imidazol-1-yl)-1-morpholinoethanone]
1.88 | C[C@H](c1ncc(Cl)cn1)n1c(N2CC[C@@H](F)[C@H](N)C2)nc2cc(F)c(F)cc21 [Example 498, (3R,4R)-1-(1-((R)-1-(5-chloropyrimidin-2-yl)ethyl)-5,6-difluoro-1H-benzo[d]imidazol-2-yl)-4-fluoropiperidin-3-amine]
2.58 | N#Cc1ccc(Cn2c(N3CC[C@@H](F)[C@H](N)C3)nc3ncc(C(F)(F)F)cc32)nc1 [Example 499, 6-((2-((3R,4R)-3-amino-4-fluoropiperidin-1-yl)-6-(trifluoromethyl)-1H-imidazo[4,5-b]pyridin-1-yl)methyl)nicotinonitrile]
5.15 | CN(CC(F)(F)F)C(=O)Cn1c(N2CC[C@@H](F)[C@H](N)C2)nc2cc(F)c(F)cc21 [Example 500, 2-(2-((3R,4R)-3-amino-4-fluoropiperidin-1-yl)-5,6-difluoro-1H-benzo[d]imidazol-1-yl)-N-methyl-N-(2,2,2-trifluoroethyl)acetamide]
6.21 | CN(C(=O)Cn1c(N2CC[C@@H](F)[C@H](N)C2)nc2cc(F)c(F)cc21)c1nccs1 [Example 501, 2-(2-((3R,4R)-3-amino-4-fluoropiperidin-1-yl)-5,6-difluoro-1H-benzo[d]imidazol-1-yl)-N-methyl-N-(thiazol-2-yl)acetamide]
9.09 | CN(C)C(=O)Cn1c(N2CC[C@@H](F)[C@H](N)C2)nc2ccc(Cl)cc21 [Example 502, 2-(2-((3R,4R)-3-amino-4-fluoropiperidin-1-yl)-6-chloro-1H-benzo[d]imidazol-1-yl)-N,N-dimethylacetamide]
25.6 | N[C@@H]1CN(c2nc3ccc(F)cc3n2CC(=O)N2CCC2)CC[C@H]1F [Example 503, 2-(2-((3R,4R)-3-amino-4-fluoropiperidin-1-yl)-6-fluoro-1H-benzo[d]imidazol-1-yl)-1-(azetidin-1-yl)ethan-1-one]
43.2 | N[C@@H]1CN(c2nc3cc(F)c(F)cc3n2CC(=O)N2CCc3sccc3C2)CC[C@H]1F [Example 505, 2-(2-((3R,4R)-3-amino-4-fluoropiperidin-1-yl)-5,6-difluoro-1H-benzo[d]imidazol-1-yl)-1-(6,7-dihydrothieno[3,2-c]pyridin-5(4H)-yl)ethan-1-one]
76.6 | CN(C)C(=O)Cn1c(N2CC[C@@H](F)[C@H](N)C2)nc2cc(Cl)ccc21 [Example 506, 2-(2-((3R,4R)-3-amino-4-fluoropiperidin-1-yl)-5-chloro-1H-benzo[d]imidazol-1-yl)-N,N-dimethylacetamide]
131 | COc1cc(F)cc2nc(N3CC[C@@H](F)[C@H](N)C3)n(CC(=O)N(C)CC(F)(F)F)c12 [Example 509, 2-(2-((3R,4R)-3-amino-4-fluoropiperidin-1-yl)-5-fluoro-7-methoxy-1H-benzo[d]imidazol-1-yl)-N-methyl-N-(2,2,2-trifluoroethyl)acetamide]
139 | N[C@@H]1CN(c2nc3cc(F)c(F)cc3n2CC(=O)N2CCCCCCC2)CC[C@H]1F [Example 510, 2-(2-((3R,4R)-3-amino-4-fluoropiperidin-1-yl)-5,6-difluoro-1H-benzo[d]imidazol-1-yl)-1-(azocan-1-yl)ethan-1-one]
158 | N[C@@H]1CN(c2nc3cc(F)c(F)cc3n2CC(=O)N2CCN(c3cnccn3)CC2)CC[C@H]1F [Example 511, 2-(2-((3R,4R)-3-amino-4-fluoropiperidin-1-yl)-5,6-difluoro-1H-benzo[d]imidazol-1-yl)-1-(4-(pyrazin-2-yl)piperazin-1-yl)ethan-1-one]
162 | COC(=O)C1CCN(C(=O)Cn2c(N3CC[C@@H](F)[C@H](N)C3)nc3cc(F)c(F)cc32)CC1 [Example 512, methyl 1-(2-(2-((3R,4R)-3-amino-4-fluoropiperidin-1-yl)-5,6-difluoro-1H-benzo[d]imidazol-1-yl)acetyl)piperidine-4-carboxylate]
183 | CCC1CN(C(=O)Cn2c(N3CC[C@@H](F)[C@H](N)C3)nc3cc(F)c(F)cc32)CCO1 (stereo partly drawn) [Example 513, 2-(2-((3R,4R)-3-amino-4-fluoropiperidin-1-yl)-5,6-difluoro-1H-benzo[d]imidazol-1-yl)-1-(2-ethylmorpholino)ethan-1-one]
185 | N[C@@H]1CN(c2nc3cc(F)ccc3n2CC(=O)N2CCC2)CC[C@H]1F [Example 514, 2-(2-((3R,4R)-3-amino-4-fluoropiperidin-1-yl)-5-fluoro-1H-benzo[d]imidazol-1-yl)-1-(azetidin-1-yl)ethan-1-one]
197 | CC1CCN(C(=O)Cn2c(N3CC[C@@H](F)[C@H](N)C3)nc3cc(F)c(F)cc32)CC1 [Example 516, 2-(2-((3R,4R)-3-amino-4-fluoropiperidin-1-yl)-5,6-difluoro-1H-benzo[d]imidazol-1-yl)-1-(4-methylpiperidin-1-yl)ethan-1-one]
400 | CCC1CN(C(=O)Cn2c(N3CC[C@@H](F)[C@H](N)C3)nc3cc(F)c(F)cc32)CCO1 (stereo partly drawn) [Example 518, 2-(2-((3R,4R)-3-amino-4-fluoropiperidin-1-yl)-5,6-difluoro-1H-benzo[d]imidazol-1-yl)-1-(2-ethylmorpholino)ethan-1-one]
476 | N#Cc1ccc(Cn2c(N3CC[C@@H](F)[C@H](N)C3)nc3cc(C(F)(F)F)cnc32)nc1 [Example 519, 6-((2-((3R,4R)-3-amino-4-fluoropiperidin-1-yl)-6-(trifluoromethyl)-3H-imidazo[4,5-b]pyridin-3-yl)methyl)nicotinonitrile]
686 | N[C@@H]1CN(c2nc3ccccc3n2CC(=O)N2CCC2)CC[C@H]1F [Example 520, 2-(2-((3R,4R)-3-amino-4-fluoropiperidin-1-yl)-1H-benzo[d]imidazol-1-yl)-1-(azetidin-1-yl)ethan-1-one]
757 | NC(=O)C1CCCCN1C(=O)Cn1c(N2CC[C@@H](F)[C@H](N)C2)nc2cc(F)c(F)cc21 (stereo partly drawn) [Example 521]
1490 | COc1ccnc(Cn2c(N3CC[C@@H](F)[C@H](N)C3)nc3cc(F)ccc32)c1 [Example 524, (3R,4R)-4-fluoro-1-(5-fluoro-1-((4-methoxypyridin-2-yl)methyl)-1H-benzo[d]imidazol-2-yl)piperidin-3-amine]
2850 | N[C@@H]1CN(c2nc3cc(F)c(F)cc3n2CC(=O)N(C2CC2)C2CCS(=O)(=O)C2)CC[C@H]1F (stereo partly drawn) [Example 526, 2-(2-((3R,4R)-3-amino-4-fluoropiperidin-1-yl)-5,6-difluoro-1H-benzo[d]imidazol-1-yl)-N-cyclopropyl-N-(1,1-dioxidotetrahydrothiophen-3-yl)acetamide]
> 3750 | N[C@@H]1CN(c2nc3cc(F)c(F)cc3n2CC(=O)N2CCNC(=O)C2)CC[C@H]1F [Example 528, 4-(2-(2-((3R,4R)-3-amino-4-fluoropiperidin-1-yl)-5,6-difluoro-1H-benzo[d]imidazol-1-yl)acetyl)piperazin-2-one]
> 1750 | N[C@@H]1CN(c2nc3cc(F)c(F)cc3n2CC(=O)N2CCC(C(=O)N3CCCC3)CC2)CC[C@H]1F [Example 529, 2-(2-((3R,4R)-3-amino-4-fluoropiperidin-1-yl)-5,6-difluoro-1H-benzo[d]imidazol-1-yl)-1-(4-(pyrrolidine-1-carbonyl)piperidin-1-yl)ethan-1-one]
> 3750 | N[C@@H]1CN(c2nc3cc(F)c(F)cc3n2CC(=O)N2CCN(C(=O)C3CC3)CC2)CC[C@H]1F [Example 531, 2-(2-((3R,4R)-3-amino-4-fluoropiperidin-1-yl)-5,6-difluoro-1H-benzo[d]imidazol-1-yl)-1-(4-(cyclopropanecarbonyl)piperazin-1-yl)ethan-1-one]
> 3750 | NC(=O)C1CCN(C(=O)Cn2c(N3CC[C@@H](F)[C@H](N)C3)nc3cc(F)c(F)cc32)CC1 [Example 532, 1-(2-(2-((3R,4R)-3-amino-4-fluoropiperidin-1-yl)-5,6-difluoro-1H-benzo[d]imidazol-1-yl)acetyl)piperidine-4-carbaxamide]
> 3750 | CN(C(=O)Cn1c(N2CC[C@@H](F)[C@H](N)C2)nc2cc(F)c(F)cc21)C(C)(C)C#N [Example 533, 2-(2-((3R,4R)-3-amino-4-fluoropiperidin-1-yl)-5,6-difluoro-1H-benzo[d]imidazol-1-yl)-N-(2-cyanopropan-2-yl)-N-methylacetamide]
